Results as given in patent US20220408756A1, “POULTRY FEED AND DRINKING WATER COMPOSITION COMPRISING MONOMETHYLSILANETRIOL” (RXW Group nv, priority 2019, published 2022).

How the values were obtained:
broiler chicken [1] = experiment: Animal body weight and daily weight gain, broiler study with silicium in drinking water; type: in vivo; conditions: for BW D0 (LSM): day 0; for BW D14 (LSM): day 14; for BW D33 (LSM): day 33
Procedure: A study was conducted to investigate the effect of silicium supplementation in drinking water of broiler chicken on their performance, locomotive system, skin healing and bone formation. Silicium was supplemented in 2 treatment groups. A third group was used as control and not treated with silicium. Silicium-monomethylsilanetriol (Si-MMST) was administrated at 2 different concentrations. […] These refer to the final silicium concentrations as measured by ICP-AES. Birds were moreover reared on humidified bedding material to simulate bad housing conditions and induce mild locomotive and skin complications. During the study, performance was assessed by weighing birds and monitoring feed intake on specific time points, separating the study in a starter, grower and finisher period. Additionally, mobility of the birds was assessed at the end of the grower (D33) and finisher period (D41) by means of gait scoring (Kestin et al., 1992). At the end of the trial (D41), footpad and chest lesions, femur head necrosis and tibia dyschondroplasy were assessed by qualified veterinarians, which also isolated 1 tibia per bird for bone strength and composition analysis. The main results of this study are summarizes in table 1.
Average daily weight gain (DWG) for example in starter period (D0-D14) was calculated, using following formula: […]
Similar formula was used to calculate the DWG for all the experimental periods. Table 2 and 3 respectively show the body weight (BW) and daily weight gain (DWG) for the different time points or experimental periods.

broiler chicken [2] = experiment: Feed consumption and feed conversion; type: in vivo
Procedure: (§1) A study was conducted to investigate the effect of silicium supplementation in drinking water of broiler chicken on their performance, locomotive system, skin healing and bone formation. Silicium was supplemented in 2 treatment groups. A third group was used as control and not treated with silicium. Silicium-monomethylsilanetriol (Si-MMST) was administrated at 2 different concentrations. More specific, Si-MMST was added to drinking water at 0.3 mg/l and 1.48 mg/l. These refer to the final silicium concentrations as measured by ICP-AES. Birds were moreover reared on humidified bedding material to simulate bad housing conditions and induce mild locomotive and skin complications. During the study, performance was assessed by weighing birds and monitoring feed intake on specific time points, separating the study in a starter, grower and finisher period. Additionally, mobility of the birds was assessed at the end of the grower (D33) and finisher period (D41) by means of gait scoring (Kestin et al., 1992). At the end of the trial (D41), footpad and chest lesions, femur head necrosis and tibia dyschondroplasy were assessed by qualified veterinarians, which also isolated 1 tibia per bird for bone strength and composition analysis. The main results of this study are summarizes in table 1.
The total feed weight was measured per pen when switching between feed compositions. The feed weight (“Feed IN”) was measured and recorded on D0, D14, D33 and D41. Two pens during grower period and all pens during finisher period were supplemented with extra feed to enable at libitum feeding. This extra feed was also weighed and recorded as “Feed IN”. The remaining feed in each pen (“Feed OUT”) was weighed and recorded on D14, D33 and D41. The feed intake (=difference in feed weight at beginning and the end of the experimental period) was calculated for each group per study period. The average daily feed intake (DFI) was calculated for the experimental period using the feed intake data by using following formula: […]
The Feed Conversion Ratio (FCR) was calculated for each of the above mentioned study periods, using following formula: […]

broiler chicken [3] = experiment: Gait scoring (Kestin et al., 1992); type: in vivo; conditions: day 33
Procedure: as §1, with “The main results of this study are summarizes in table 1.” left out
On D33 and D41, mobility of the birds was evaluated individually by using the gait scoring chart as described by Kestin et al., 1992. […]

broiler chicken [4] = experiment: Footpad and chest lesion scores; type: in vivo; design: Footpad lesion score (mean) / Chest lesion score (mean): scale not given here; conditions: D41
Procedure: as §1
More specific, the average footpad lesion score decreased from 1.31 in the UC to 0.9 in the 0.3 mg/l Si-MMS treatment group.

broiler chicken [5] = experiment: Femur head necrosis and tibia dyschondroplasy scores; type: in vivo; design: Femur head necrosis score (mean): scale not given here; conditions: D41; for Tibia dyschondroplasy score (mean) / Tibia dyschondroplasy, number of birds with score 0 / Tibia dyschondroplasy, number of birds with score 1 / Tibia dyschondroplasy, number of birds with score 2: unilateral, scale 0 to 2
Procedure: as §1
As 1 of the 2 tibia needs to be isolated unimpaired, tibia dyschondroplasy could only be scored unilateral. Therefore the tibia dyschondroplasy scoring ranges from 0 to 2 instead of 0 to 5.
On D41, all birds were scored for femur head necrosis and tibia dyschondroplasy as described in table 8. No significant differences could be observed between the UC and silicium treated groups based on femur head necrosis and tibia dyschondroplasy.

broiler chicken [6] = experiment: Bone strength measurement (tibia); type: in vivo; conditions: D41
Procedure: as §1
(§2) On D41, one tibia of each bird was collected for analysis. Initially, we selected 2 birds in each pen (first 2 numbers/pen) to obtain 50 samples for analysis of bone weight, fracture force (N), maximum force (N), stiffness (N/mm), bone dry matter (%), bone ash (%), phosphorus content (%), calcium content (%), copper content (mg/kg), manganese content (mg/kg) and zinc content (mg/kg). The results of bone strength measurement per treatment group are presented in table 9 and analysis on bone composition is represented in table 10.

broiler chicken [7] = experiment: Bone composition measurements (tibia); type: in vivo; conditions: for Bone ash / Bone calcium content / Bone copper content / Bone dry matter / Bone phosphorus content / Bone zinc content: D41; for Bone manganese content: D41, values below detection limit (<5) set to 2.5
Procedure: as §1, §2

Stability in water = type: physicochemical
Procedure: This organosilicon compound is highly bioavailable. […] MMST can advantageously be used without stabilizers in silicon equivalent concentrations up to 300 mg/l. The stability of MMST is dependent on concentration and declines at higher concentrations. The stability can be enhanced by the use of stabilizing agents.

[8] = 0.3 mg/l Si-MMST in drinking water
[9] = 1.48 mg/l Si-MMST in drinking water

C[Si](O)(O)O [Si-MMST, monomethylsilanetriol]
BW D0 (LSM) (broiler chicken [1]; 0.3 mg/l Si-MMST in drinking water (Si-MMST 1)): 48 g
DWG D0-14 (LSM) (broiler chicken [1]; [8]): 25.6 g
DWG D0-41 (LSM) (broiler chicken [1]; 0.3 mg/l Si-MMST in drinking water, D0-41): 63.1 g
DWG D14-33 (LSM) (broiler chicken [1]; [8]): 70.6 g
DWG D33-41 (LSM) (broiler chicken [1]; [8]): 111.1 g
BW D14 (LSM) (broiler chicken [1]; [8]): 407 g
BW D33 (LSM) (broiler chicken [1]; [8]): 1748 g
BW D41 (LSM) (broiler chicken [1]; 0.3 mg/l Si-MMST in drinking water, day 41): 2636 g
DWG over the complete study period (D0-D41) versus control (broiler chicken [1]; 1.433 mg/l Si-MMST in drinking water, D0-D41): significantly increased
body weight on day 41 versus control (broiler chicken [1]; 1.433 mg/l Si-MMST in drinking water, day 41): significantly increased
BW D0 (LSM) (broiler chicken [1]; 1.48 mg/l Si-MMST in drinking water (Si-MMST 2)): 48 g
DWG D0-14 (LSM) (broiler chicken [1]; [9]): 25.8 g
DWG D14-33 (LSM) (broiler chicken [1]; [9]): 77.6 g
DWG D33-41 (LSM) (broiler chicken [1]; [9]): 111.1 g
BW D14 (LSM) (broiler chicken [1]; [9]): 410 g
BW D33 (LSM) (broiler chicken [1]; [9]): 1883 g
BW on day 41 (broiler chicken [1]; 1.48 mg/l Si-MMST in drinking water, day 41, UC 2.622 kg): 2.775 kg
DFI D0-14 (mean) (broiler chicken [2]; [8]): 24.9 g
FCR D0-14 (mean) (broiler chicken [2]; [8]): 1.0
DFI D0-41 (mean) (broiler chicken [2]; [8]): 117.4 g
FCR D0-41 (mean) (broiler chicken [2]; [8]): 1.9
DFI D14-33 (mean) (broiler chicken [2]; [8]): 141.2 g
FCR D14-33 (mean) (broiler chicken [2]; [8]): 2.0
DFI D33-41 (mean) (broiler chicken [2]; [8]): 207.0 g
FCR D33-41 (mean) (broiler chicken [2]; [8]): 1.9
DFI D0-14 (mean) (broiler chicken [2]; [9]): 25.0 g
FCR D0-14 (mean) (broiler chicken [2]; [9]): 1.0
DFI D0-41 (mean) (broiler chicken [2]; [9]): 114.4 g
FCR D0-41 (mean) (broiler chicken [2]; [9]): 1.8
DFI D14-33 (mean) (broiler chicken [2]; [9]): 132.7 g
FCR D14-33 (mean) (broiler chicken [2]; [9]): 1.7
DFI D33-41 (mean) (broiler chicken [2]; [9]): 218.5 g
FCR D33-41 (mean) (broiler chicken [2]; [9]): 2.1
daily feed intake versus control (broiler chicken [2]; MMST supplemented treatment groups, all study periods and D0-D41): higher than the control
Gait score D33 (mean) (broiler chicken [3]; [8]): 0.26
Gait score D33 (mean) (broiler chicken [3]; [9]): 0.27
Chest lesion score (mean) (broiler chicken [4]; [8]): 0.02
Chest lesion, number of birds with score 0 (broiler chicken [4]; [8]): 48
Chest lesion, number of birds with score 1 (broiler chicken [4]; [8]): 1
Footpad lesion score (mean) (broiler chicken [4]; [8]): 0.9
Footpad lesion, number of birds with score 0 (broiler chicken [4]; [8]): 19
Footpad lesion, number of birds with score 1 (broiler chicken [4]; [8]): 16
Footpad lesion, number of birds with score 2 (broiler chicken [4]; [8]): 14
Chest lesion score (mean) (broiler chicken [4]; [9]): 0.00
Chest lesion, number of birds with score 0 (broiler chicken [4]; [9]): 45
Chest lesion, number of birds with score 1 (broiler chicken [4]; [9]): 0
Footpad lesion score (mean) (broiler chicken [4]; [9]): 1.04
Footpad lesion, number of birds with score 0 (broiler chicken [4]; [9]): 8
Footpad lesion, number of birds with score 1 (broiler chicken [4]; [9]): 27
Footpad lesion, number of birds with score 2 (broiler chicken [4]; [9]): 10
Femur head necrosis score (mean) (broiler chicken [5]; [8]): 1.29
Femur head necrosis, number of birds with score 0 (broiler chicken [5]; [8]): 10
Femur head necrosis, number of birds with score 1 (broiler chicken [5]; [8]): 15
Femur head necrosis, number of birds with score 2 (broiler chicken [5]; [8]): 24
Femur head necrosis, number of birds with score 3 (broiler chicken [5]; [8]): 0
Femur head necrosis, number of birds with score 5 (broiler chicken [5]; [8]): 0
Tibia dyschondroplasy score (mean) (broiler chicken [5]; [8]): 0.10
Tibia dyschondroplasy, number of birds with score 0 (broiler chicken [5]; [8]): 44
Tibia dyschondroplasy, number of birds with score 1 (broiler chicken [5]; [8]): 5
Tibia dyschondroplasy, number of birds with score 2 (broiler chicken [5]; [8]): 0
Femur head necrosis score (mean) (broiler chicken [5]; [9]): 1.2
Femur head necrosis, number of birds with score 0 (broiler chicken [5]; [9]): 15
Femur head necrosis, number of birds with score 1 (broiler chicken [5]; [9]): 7
Femur head necrosis, number of birds with score 2 (broiler chicken [5]; [9]): 22
Femur head necrosis, number of birds with score 3 (broiler chicken [5]; [9]): 1
Femur head necrosis, number of birds with score 5 (broiler chicken [5]; [9]): 0
Tibia dyschondroplasy score (mean) (broiler chicken [5]; [9]): 0.09
Tibia dyschondroplasy, number of birds with score 0 (broiler chicken [5]; [9]): 41
Tibia dyschondroplasy, number of birds with score 1 (broiler chicken [5]; [9]): 4
Tibia dyschondroplasy, number of birds with score 2 (broiler chicken [5]; [9]): 0
Bone weight (mean) (broiler chicken [6]; [8]): 12.3 g
Fracture force (mean) (broiler chicken [6]; [8]): 360.7 N
Maximum force (mean) (broiler chicken [6]; [8]): 372.5 N
Stiffness (mean) (broiler chicken [6]; [8]): 148.8 N/mm
Bone weight (mean) (broiler chicken [6]; [9]): 13.2 g
Fracture force (mean) (broiler chicken [6]; [9]): 400.6 N
Maximum force (mean) (broiler chicken [6]; [9]): 409.6 N
Stiffness (mean) (broiler chicken [6]; [9]): 164.3 N/mm
Bone ash (broiler chicken [7]; [8]): 22.6%
Bone calcium content (broiler chicken [7]; [8]): 35.3%
Bone copper content (broiler chicken [7]; [8]): 3.3 mg/kg
Bone dry matter (broiler chicken [7]; [8]): 49.0%
Bone phosphorus content (broiler chicken [7]; [8]): 17.8%
Bone zinc content (broiler chicken [7]; [8]): 326.9 mg/kg
Bone manganese content (broiler chicken [7]; [8]): 7.4 mg/kg
Bone ash (broiler chicken [7]; [9]): 22.9%
Bone calcium content (broiler chicken [7]; [9]): 35.1%
Bone copper content (broiler chicken [7]; [9]): 3.2 mg/kg
Bone dry matter (broiler chicken [7]; [9]): 49.1%
Bone phosphorus content (broiler chicken [7]; [9]): 17.6%
Bone zinc content (broiler chicken [7]; [9]): 340.3 mg/kg
Bone manganese content (broiler chicken [7]; [9]): 8.2 mg/kg
silicon equivalent concentration usable without stabilizers (Stability in water; in water, without stabilizers): up to 300 mg/l
stability in water (Stability in water; low concentrations): sufficiently stable
